Laboratory results as given in the supplement of paper PMC10307832.

What was measured:
Experiment in all cases: relative viability (nuclei count vs DMSO), 5 days (fraction); higher = more cells survive
[1] = compound: CN(c1ncccc1CNc1nc(Nc2ccc3c(c2)CC(=O)N3)ncc1C(F)(F)F)S(C)(=O)=O + CCNC(=O)c1noc(-c2cc(C(C)C)c(O)cc2O)c1-c1ccc(CN2CCOCC2)cc1 [Luminespib] (partner 0.01 µM)
Summary of the method: (§1)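 Lung cancer cell lines, seeded in 1536-well plates, were treated the following day by pin tool with a single drug or with five library-drug doses (not always all listed) in √10 steps on top of a fixed anchor-drug dose. Cells were fixed and nuclei stained in one step after 5 days, and nuclei were counted. Relative viability is the nuclei count for treated wells divided by that for vehicle wells, reported as medians of duplicate plates.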

[2] = compound: CN(c1ncccc1CNc1nc(Nc2ccc3c(c2)CC(=O)N3)ncc1C(F)(F)F)S(C)(=O)=O + CC(C)C[C@H](NC(=O)[C@H](Cc1ccccc1)NC(=O)c1cnccn1)B(O)O [Bortezomib] (partner 0.002 µM)
Summary of the method: as §1

[3] = compound: CN(c1ncccc1CNc1nc(Nc2ccc3c(c2)CC(=O)N3)ncc1C(F)(F)F)S(C)(=O)=O + Cc1nc(Nc2ncc(C(=O)Nc3c(C)cccc3Cl)s2)cc(N2CCN(CCO)CC2)n1 [Dasatinib] (partner 0.075 µM)
Summary of the method: as §1

[4] = compound: CN(c1ncccc1CNc1nc(Nc2ccc3c(c2)CC(=O)N3)ncc1C(F)(F)F)S(C)(=O)=O + CC(=O)c1c(C)c2cnc(Nc3ccc(N4CCNCC4)cn3)nc2n(C2CCCC2)c1=O [Palbociclib] (partner 0.5 µM)
Summary of the method: as §1

Cell Line | relative viability ([1]; first compound 0.01 µM) | relative viability ([1]; first compound 0.03162 µM) | relative viability ([1]; first compound 0.1 µM) | relative viability ([1]; first compound 0.3162 µM) | relative viability ([1]; first compound 1 µM) | relative viability ([2]; first compound 0.01 µM) | relative viability ([2]; first compound 0.03162 µM) | relative viability ([2]; first compound 0.1 µM) | relative viability ([2]; first compound 0.3162 µM) | relative viability ([2]; first compound 1 µM) | relative viability ([3]; first compound 0.01 µM) | relative viability ([3]; first compound 0.03162 µM) | relative viability ([3]; first compound 0.1 µM) | relative viability ([3]; first compound 0.3162 µM) | relative viability ([3]; first compound 1 µM) | relative viability ([4]; first compound 0.01 µM) | relative viability ([4]; first compound 0.03162 µM) | relative viability ([4]; first compound 0.1 µM) | relative viability ([4]; first compound 0.3162 µM) | relative viability ([4]; first compound 1 µM)
HOP-62 | 0.969 | 0.933 | 0.949 | 0.932 | 0.699 | 0.839 | 0.673 | 0.939 | 0.803 | 0.911 | 0.616 | 0.512 | 0.5 | 0.301 | 0.301 | 0.469 | 0.444 | 0.374 | 0.412 | 0.39
NCI-H1915 | 0.821 | 0.636 | 0.711 | 0.729 | 0.729 | 0.988 | 1.05 | 1.01 | 0.888 | 0.963 | 0.296 | 0.269 | 0.292 | 0.295 | 0.309 | 0.498 | 0.532 | 0.58 | 0.525 | 0.509
NCI-H3122 | 0.0983 | 0.101 | 0.0795 | 0.0863 | 0.0795 | 1.04 | 1.03 | 1.01 | 0.968 | 0.891 | 0.802 | 1.02 | 0.787 | 0.746 | 0.764 | 0.204 | 0.188 | 0.155 | 0.202 | 0.149
NCI-H1651 | 1.03 | 0.957 | 0.708 | 0.688 | 0.667 | 0.936 | 1.04 | 0.939 | 0.885 | 0.9 | 0.47 | 0.374 | 0.38 | 0.316 | 0.282 | 0.527 | 0.529 | 0.529 | 0.487 | 0.5
NCI-H838 | 0.409 | 0.255 | 0.242 | 0.31 | 0.263 | 0.767 | 0.923 | 0.88 | 0.942 | 0.598 | 0.27 | 0.279 | 0.217 | 0.305 | 0.205 | 0.243 | 0.237 | 0.211 | 0.204 | 0.204
SK-LU-1 | 0.197 | 0.208 | 0.214 | 0.172 | 0.209 | 1.33 | 1.28 | 0.839 | 1.24 | 1.12 | 0.198 | 0.176 | 0.157 | 0.162 | 0.124 | 0.405 | 0.358 | 0.398 | 0.401 | 0.369
NCI-H441 | 0.435 | 0.322 | 0.369 | 0.331 | 0.287 | 0.68 | 0.859 | 0.36 | 0.542 | 0.377 | 0.631 | 0.497 | 0.378 | 0.35 | 0.295 | 0.23 | 0.239 | 0.181 | 0.176 | 0.16
NCI-H650 | 0.773 | 0.779 | 0.655 | 0.728 | 0.654 | 0.69 | 0.846 | 0.843 | 0.692 | 0.649 | 0.445 | 0.459 | 0.434 | 0.434 | 0.456 | 0.324 | 0.32 | 0.307 | 0.266 | 0.3
